We go through two molecules from patent US20250195542A1, “METABOLIC DISEASE THERAPEUTIC AGENT OR PREVENTIVE AGENT” (Peking University, priority 2022, published 2025).

Series [1] deals with mouse primary liver cells. The series is described as follows: Oleic acid-palmitic acid induced lipid deposition with RDH10 siRNA knockdown, mouse primary liver cells (Oil Red O). The class given is cell-based. The settings on record: 20 μM.
The target of series [2] is T1, RDH10 (Mus musculus, UniProt Q8VCH7).
T1 construct: Take approximately 50 mg of liver tissue from C57BL/6J mice and add 1 mL of RIPA lysis buffer; from tissue; host or cells: mouse liver (C57BL/6J) lysate
T1 sequence (Q8VCH7 1-341): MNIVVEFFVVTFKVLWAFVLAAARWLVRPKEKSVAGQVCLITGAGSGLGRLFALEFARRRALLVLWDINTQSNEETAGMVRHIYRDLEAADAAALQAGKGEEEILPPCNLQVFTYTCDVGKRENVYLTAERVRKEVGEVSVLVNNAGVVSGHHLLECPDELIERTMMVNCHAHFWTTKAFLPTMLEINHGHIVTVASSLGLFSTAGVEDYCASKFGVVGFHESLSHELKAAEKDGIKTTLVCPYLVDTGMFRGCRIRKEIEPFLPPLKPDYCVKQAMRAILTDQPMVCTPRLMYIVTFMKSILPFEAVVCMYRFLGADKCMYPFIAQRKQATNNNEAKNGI
Kind of series: Protein fishing (pull-down) with molecular probe and proteomics analysis. The note with it: 400 μM ACS against 40 μM ACS-biotin. The class given is binding, C57BL/6J mice. The protocol: • 1. Preparation of Liver Protein: Take approximately 50 mg of liver tissue from C57BL/6J mice and add 1 mL of RIPA lysis buffer. Lyse the proteins on ice, then centrifuge at 12,000 rpm for 30 minutes at 4° C. Collect the supernatant, measure the protein concentration using BCA method, and dilute to 1 mg/mL with PBS. • 2. Sample Preparation: Prepare new 1.5 mL EP tubes and divide them into control group, drug group, and competitive inhibition group. Add 100 μL of PBS solution containing 40 μM Biotin to the control group, 100 μL of PBS solution containing 40 μM ACS-biotin (prepared in Example 1) to the drug group, and 100 μL of PBS solution containing 40 μM ACS-biotin and 400 μM ACS to the competitive inhibition group. Then, add 100 μL of liver protein lysate (1 mg/mL) to each tube and incubate on a shaking incubator at 4° C. for 2 hours. • 3. Washing Streptavidin Beads: Add 100 μL of streptavidin beads to new 1.5 mL EP tubes and centrifuge at 2,700 rpm for 1 minute. Discard the supernatant and wash the beads with 100 μL of PBS three times. • 4. Binding and Washing: Add the solutions from step 2 to the washed streptavidin beads. Incubate on a shaking incubator at 4° C. for 2 hours, then centrifuge at 2,700 rpm for 1 minute. Discard the supernatant and wash the beads with 100 μL of PBS three times. • 5. Protein Elution: Add 50 μL of PBS to the beads, mix well, and then add 5×SDS-PAGE sample buffer. Boil for 5 minutes and centrifuge at 13,000 rpm for 5 minutes. Store the supernatant at −20° C. for SDS-PAGE gel electrophoresis. • 6. Protein Detection: Stain with Coomassie Brilliant Blue and cut the gel for proteomics analysis.

Series [3] concerns NASH in MCD model mice. The series is described as follows: Serum ALT and AST in MCD mice, Example 12. The class given is in vivo, C57BL/6J mice. The settings on record: oral 4 weeks, 10 and 20 mg/kg, better than obeticholic acid 10 mg/kg, FIG. 17B. The protocol:
(§1) Four-week-old male C57BL/6J mice were purchased from the Experimental Animal Center, Peking University Health Science Center. The mice were randomly divided into groups, with 10 mice per group. Methionine choline-deficient diet (MCD) was used to induce NASH, forming the MCD model mice. The model mice were treated with an oral administration of drugs for 4 weeks. After the final treatment, the mice were fasted overnight, and then sacrificed. Serum and liver tissue samples were stored at −80° C., which could be compared with untreated MCD mice (“MCD”) and normal mice (“Nor” or “Normal”). The dosing amounts for each group were as follows: low-dose 25S-Antcin C (“ACS-L”): 10 mg/kg; high-dose 25S-Antcin C (“ACS-H”): 20 mg/kg; obeticholic acid (“OCA”): 10 mg/kg.
After the final treatment and overnight fasting, mice were anesthetized, and blood was collected from the tail vein. Whole blood was allowed to stand for 2 hours, centrifuged at 6000 rpm for 10 minutes, and the supernatant was used to measure serum alanine aminotransferase (ALT) and aspartate aminotransferase (AST) levels using ALT assay kit and AST assay kit (Bote Biotech, Beijing).

The target in series [4] is T1, RDH10. Kind of series: Cellular thermal shift assay (CETSA / ITDRFCETSA). The format is binding. On the procedure: • 1. Mouse liver total protein (500 μg/mL) was incubated at room temperature for 2 hours with either 25S-Antcin C (100 μM) or an equal volume of DMSO. • 2. After incubation, the 25S-Antcin C-treated group and the DMSO control group were aliquoted into 13 PCR tubes, with 30 μL per tube, and placed on ice. • 3. In a PCR machine, a gradient heating program for CETSA was set up with 12 temperature points (37, 41, 45, 49, 53, 57, 61, 65, 69, 73, 77, 81° C.). The 13 samples from the 25S-Antcin C-treated group and the DMSO control group were heated at each temperature point for 3 minutes, then immediately taken out and incubated at room temperature for 3 minutes, followed by rapid cooling on ice. • 4. The samples were transferred to 1.5 mL EP tubes and centrifuged at 15,000 rpm for 40 minutes at 4° C. • 5. The supernatant was transferred to new EP tubes, mixed with 5×SDS-PAGE loading buffer, and boiled for 5 minutes to denature the proteins. Western Blot was then performed.

The subject of the next series is L02 human liver cells. Kind of series: Oleic acid-palmitic acid induced lipid deposition with RDH10 siRNA knockdown, L02 cells (Oil Red O). The format is cell-based. The note with it: 20 μM.
The next series addresses T2, RDH10 protein (Homo sapiens, UniProt Q8IZV5).
T2 sequence (Q8IZV5 1-341): T1 sequence (Q8VCH7 1-341) with K99N, P107H, R278K, V287I
The series is described as follows: Surface plasmon resonance (SPR), Biacore T200. The settings on record: RDH10 immobilized on CM5 chip; 25S-Antcin C 0.78-25 μM; FIG. 15B. The class given is binding. The protocol: Using a Biacore T200 plasmon surface resonance instrument, RDH10 protein was immobilized on a CM5 sensor chip via an amine coupling reaction. The pH of the RDH10 protein was 4.5, and the final immobilization concentration was 50 μg/mL. The running buffer consisted of 50 mM Tris-Hcl buffer containing […] NaCl, 2 mM MgCl2, 0.05% Tween-20, and 5% DMSO. In the binding experiment, different concentrations of 25S-Antcin C (25, 12.5, 6.25, 3.12, 1.56, 0.78 μM) were dissolved in the running buffer. The flow rate was 30 μL/min, with a contact time of 60 seconds and a dissociation time of 60 seconds. Data were analyzed using Biacore software, and the kinetic analysis calculated the affinity constant (KD value).
(In general: SPR reads the build-up and loss of mass on a sensor chip optically.)

Series [5] relates to NASH in MCD model mice. The series is described as follows: H&E liver histology in MCD mice, Example 12. The class given is in vivo, C57BL/6J mice. The settings on record: oral 4 weeks, 10 and 20 mg/kg, better than obeticholic acid 10 mg/kg, FIG. 17A. On the procedure: as §1
After the final treatment, the mice were sacrificed, and the liver tissue samples were fixed overnight in 4% paraformaldehyde, embedded in paraffin, and sectioned. […]

For series [6] the following is noted: cited from earlier work.
[7] abbreviates: oleic acid-palmitic acid, 24 hours, FIG. 16B.

SMILES strings stand for the structures. Substitutions are numbered along the chain they refer to.

As for `C=C(CC[C@@H](C)[C@H]1CC[C@H]2C3=C(C(=O)C[C@]12C)[C@@]1(C)CCC(=O)[C@@H](C)[C@@H]1C[C@@H]3O)[C@H](C)C(=O)O` [25S-Antcin C], the “effect on reducing lipid deposition in the RDH10 siRNA group” value (in series [1] (RDH10 knockdown); in the series on L02 human liver cells (RDH10 knockdown)) was “almost completely lost” in each case. Also, the “lipid droplets, Control siRNA group” value (in series [1] (setting [7]); in the series on L02 human liver cells (setting [7])) was “significantly reduced in size” throughout. The “competitive inhibition of probe binding to RDH10 protein” value on RDH10 [2] was “reduces the binding of the molecular probe to the RDH10 protein”. The “serum ALT levels” value with NASH in MCD model mice [3] is listed as “significantly reduced”. Also, in the series on NASH in MCD model mice [3], the “serum AST levels” value is recorded as “significantly reduced”. For the same molecule, the “RDH10 protein that did not precipitate” value on RDH10 [4] (100 μM, among 53-69 °C) is on record as “significant increase”. Further, the “stability of RDH10 protein at 61° C. (ITDRFCETSA)” value at RDH10 [4] (constant 61 °C, 0.01-1000 μM, FIG. 15D) is reported as “increased with higher concentrations of 25S-Antcin C, stabilizing after 100 μM”. The “CETSA curve of RDH10” value on RDH10 [4] (mouse liver total protein, 100 μM, 37-81 °C, compared to DMSO group, FIG. 15C) was “shift in the CETSA curve”. The affinity at RDH10 protein, expressed as Kd, was 8.31 µM. Besides, the “liver steatosis and ballooning” value in the series with NASH in MCD model mice [5] was “significantly reduced”.
Take `CC[C@H]1[C@@H](O)[C@@H]2[C@H](CC[C@]3(C)[C@@H]([C@H](C)CCC(=O)O)CC[C@@H]23)[C@@]2(C)CC[C@@H](O)C[C@@H]12` [obeticholic acid]: the “serious side effects in clinical trials” value in series [6] is listed as “severe pruritus”.

One may read the Kd as the constant that tells how readily two partners part at equilibrium. Read a high Kd as a looser complex.
